Assays:
[1] = target: LBD of chemoreceptor R5 (WP_028444678.1); assay: ITC binding to R5-LBD; design: species or system Chitinimonas koreensis; conditions: 20 °C, Nb = no binding
Protocol: (§1) Plasmids for the overexpression of the different proteins were transformed into E. coli BL21(DE3). The resulting strains were grown under continuous stirring (200 rpm) at 30 °C in 2-L Erlenmeyer flasks containing 500 mL of LB medium supplemented with 50 μg/mL kanamycin. At an OD660 of 0.5, protein expression was induced by the addition of 0.1 mM isopropyl β-D-1-thiogalactopyranoside. Growth was continued at 16 °C overnight prior to cell harvesting by centrifugation at 10,000 × g for 20 min. Cell pellets were resuspended in buffer A (Additional file 2: Table S4) and subsequently broken by French press treatment at 62.5 lb/in^2. After centrifugation at 20,000 × g for 30 min, the supernatants were loaded onto 5-mL HisTrap HP columns (Amersham Biosciences) equilibrated with buffer A, and the proteins were eluted with a linear gradient of buffer B (Additional file 2: Table S4). All proteins contain a hexa-histidine tag at the N-terminal extension (Additional file 2: Table S3) and were purified at 4 °C. The purified proteins were dialyzed overnight into the corresponding analysis buffers (Additional file 2: Table S4) for immediate analysis.
(§2) All experiments were conducted on a VP microcalorimeter (Microcal, MA) at 15 °C for PacP-LBD and at 20 °C for the remaining proteins. Proteins were dialyzed into the analysis buffers specified in Additional file 2: Table S4, placed into the sample cell and titrated with aliquots of ligand solutions (1 to 10 mM) freshly prepared in dialysis buffer. The mean enthalpies measured from the injection of the ligands into the analysis buffer were subtracted from the raw titration data prior to data analysis with the MicroCal version of ORIGIN. The data were fitted with the “One binding site model” of ORIGIN.

P. atrosepticum SCRI1043 = assay: Quantitative capillary chemotaxis assay, wild type; format: cell-based, Pectobacterium atrosepticum; conditions: wild type SCRI1043, 1 mM ligand, 30 min
Protocol: (§3) Overnight cultures of P. atrosepticum SCRI1043 were grown at 30 °C in minimal medium. At an OD660 of 0.4–0.45, the cultures were washed twice with chemotaxis buffer (50 mM K2HPO4/KH2PO4, 20 μM EDTA, 0.05% (v/v) glycerol, pH 7.0) and diluted to an OD660 of 0.1 in the same buffer. Subsequently, 230 μL of the resulting bacterial suspension was placed into the wells of 96-well plates. One-microliter capillary tubes (P1424, Microcaps; Drummond Scientific) were heat-sealed at one end and filled with either chemotaxis buffer (negative control) or chemotaxis buffer containing PacP ligands at a concentration of 1 mM. The capillaries were immersed in the bacterial suspensions at their open ends. After 30 min at room temperature, the capillaries were removed from the bacterial suspensions, rinsed with sterile water, and the contents were expelled into 1 mL of 40 mM K2HPO4, 15 mM KH2PO4. Serial dilutions were plated onto minimal medium supplemented with 15 mM glucose as the carbon source. The number of colony-forming units was determined after 36 h of incubation at 30 °C. In all the cases, the data were corrected with the number of cells that swam into the buffer-containing capillaries.

ITC binding to R7-LBD = assay: ITC binding to R7-LBD; design: species or system Methyloversatilis discipulorum; conditions: 20 °C, Nb = no binding
Protocol: as §1, §2

[2] = target: LBD of chemoreceptor R4 (WP_158281851.1) (Rivihabitans pingtungensis, UniProt A0A318KJN4); assay: ITC binding to R4-LBD; design: species or system Rivicola pingtungensis; conditions: 20 °C, Nb = no binding
Protocol: as §1, §2

[3] = tested on: PacP-LBD mutant (Y86, H100, R105, Y121, K148 and Y167 replaced by alanine); assay: ITC binding to PacP-LBD binding site motif mutant; design: species or system Pectobacterium atrosepticum; conditions: 36 μM PacP-LBD alanine mutant; 1 mM glycerol 3-phosphate, 2.5 mM glyceraldehyde 3-phosphate
Protocol: as §1, with “The purified proteins were dialyzed overnight into the corresponding analysis buffers (Additional file 2: Table S4) for immediate analysis.” left out
All experiments were conducted on a VP microcalorimeter (Microcal, MA) at 15 °C for PacP-LBD and at 20 °C for the remaining proteins. […] The mean enthalpies measured from the injection of the ligands into the analysis buffer were subtracted from the raw titration data prior to data analysis with the MicroCal version of ORIGIN. […]

[4] = target: LBD of chemoreceptor R6 (WP_174062248.1); assay: ITC binding to R6-LBD; design: species or system Agrobacterium larrymoorei; conditions: 20 °C, Nb = no binding
Protocol: as §1, §2

[5] = target: LBD of chemoreceptor R10 (WP_028866120.1); assay: ITC binding to R10-LBD; design: species or system Psychromonas aquimarina; conditions: 20 °C, Nb = no binding
Protocol: as §1, §2

[6] = target: LBD of chemoreceptor R9 (WP_189529961.1) (Paludibacterium paludis, UniProt A0A918NWY2); assay: ITC binding to R9-LBD; conditions: 20 °C, Nb = no binding
Protocol: as §1, §2

[7] = tested on: P. atrosepticum SCRI1043 pacP mutant (MpacP); assay: Quantitative capillary chemotaxis assay, pacP mutant; format: cell-based, Pectobacterium atrosepticum; conditions: 1 mM ligand
Source text: A mutant defective in ECA_RS12390 was constructed by homologous recombination using a derivative plasmid of the suicide vector pKNG101. Briefly, a 0.5-kb fragment corresponding to the region encoding the LBD of ECA_RS12390 was amplified by the primers specified in Additional file 2: Table S2 and cloned into pGEM®-T. The resulting plasmid pGEM::ECA_RS12390 was digested with XmaI, and the 0.5-kb insert was cloned into the same site at pKNG101 to generate pKNG101::ECA_RS12390. This plasmid was subsequently transformed into P. atrosepticum SRCI1043 via biparental conjugation using E. coli β2163. All the plasmids were verified by PCR and sequencing. The pETb(+) derivatives encoding the LBD of the different receptors analyzed in this study (Table 1) were purchased from GeneScript. Plasmid pBBR-ECA_RS12390 was constructed by amplifying the pacP gene using the primers detailed in Additional file 2: Table S2 and cloning of the PCR product into the NdeI/BamHI sites of pBBR1MCS2_START. The sequences of the proteins analyzed in this study are provided in Additional file 2: Table S3. The ECA_RS12390 nucleotide sequence is available in the published genome of P. atrosepticum SCRI1043 [60].
as §3

[8] = target: LBD of chemoreceptor R3 (WP_006464688.1) (Herbaspirillum frisingense, UniProt A0ABU1PC34); assay: ITC binding to R3-LBD; conditions: 20 °C, Nb = no binding
Protocol: as §1, §2

[9] = tested on: Pectobacterium atrosepticum SCRI1043; assay: Growth experiment, sole phosphorus source; format: cell-based; conditions: PFM9 minimal medium, 5 mM ligand, 30 °C, 48 h
Protocol: (§4) P. atrosepticum SCRI1043 was cultured overnight in phosphate-free M9-based medium (PFM9) supplemented with 20 mM glucose as the carbon source and 500 µM inorganic phosphate as the phosphate source. Cultures were washed and then diluted to an OD600 of 0.02 in PFM9 supplemented with different PacP ligands as the sole carbon or phosphorous source at a final concentration of 5 mM. Subsequently, 200 µL aliquots of these cultures were transferred into microwell plates, which were subsequently grown at 30 °C on a Bioscreen microbiological growth analyzer (Oy Growth Curves Ab Ltd., Helsinki, Finland) for 48 h.

[10] = target: ligand binding domain of the chemoreceptor ECA_RS12390 (PacP-LBD, R1, WP_011094075.1) (Pectobacterium atrosepticum, UniProt Q6D464); assay: ITC binding to PacP-LBD; conditions: 15 °C, Nb = no binding
Protocol: as §1, §2

[11] = tested on: Pectobacterium atrosepticum SCRI1043; assay: Growth experiment, sole carbon source; format: cell-based; conditions: PFM9 minimal medium, 5 mM ligand, 30 °C, 48 h
Protocol: as §4

LBD of chemoreceptor R3 (WP_006464688.1), sequence (A0ABU1PC34 entry or part of it): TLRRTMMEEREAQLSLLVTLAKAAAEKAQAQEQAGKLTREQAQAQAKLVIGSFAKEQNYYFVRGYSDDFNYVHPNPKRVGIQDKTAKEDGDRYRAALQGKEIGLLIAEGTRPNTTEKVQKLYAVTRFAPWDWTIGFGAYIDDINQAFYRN
LBD of chemoreceptor R4 (WP_158281851.1), sequence (A0A318KJN4 entry or part of it): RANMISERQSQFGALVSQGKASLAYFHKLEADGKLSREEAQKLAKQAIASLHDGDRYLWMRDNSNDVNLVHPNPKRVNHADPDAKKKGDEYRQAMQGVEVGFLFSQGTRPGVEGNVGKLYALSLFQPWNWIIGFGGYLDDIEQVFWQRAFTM
ligand binding domain of the chemoreceptor ECA_RS12390 (PacP-LBD, R1, WP_011094075.1), sequence (Q6D464 entry or part of it): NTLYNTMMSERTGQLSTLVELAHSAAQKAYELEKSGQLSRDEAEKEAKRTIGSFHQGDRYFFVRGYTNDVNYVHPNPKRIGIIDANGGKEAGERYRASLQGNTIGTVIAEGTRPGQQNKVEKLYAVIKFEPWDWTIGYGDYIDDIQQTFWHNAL
LBD of chemoreceptor R9 (WP_189529961.1), sequence (A0A918NWY2 entry or part of it): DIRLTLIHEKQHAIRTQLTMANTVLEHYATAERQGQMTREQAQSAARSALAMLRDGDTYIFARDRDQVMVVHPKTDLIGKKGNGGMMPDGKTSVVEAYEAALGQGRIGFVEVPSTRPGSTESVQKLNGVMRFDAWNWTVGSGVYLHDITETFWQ

In the case of `O=CC(O)COP(=O)(O)O` (stereo not shown) [glyceraldehyde 3-phosphate], the KD [1] is reported as “Nb”, the “chemotaxis (capillary assay)” value (P. atrosepticum SCRI1043) is reported as “Modest chemoattraction” and the Kd (ITC binding to R7-LBD) is reported as 126 ± 9 µM. The Kd [2] was 100 ± 2 µM, the “binding in microcalorimetric titration” value [3] was “absence of binding” and the KD [4] was “Nb”. For the same compound, the KD [5] was “Nb”, the KD [6] was “Nb” and the “chemotaxis (capillary assay)” value [7] was “Only glycerol 2-phosphate served as an attractant for the mutant”. The KD [8] was “Nb”, the “growth as sole phosphorus source” value [9] was “devoid of apparent metabolic value” and the Kd [10] was 58 ± 2 µM. The “growth as sole carbon source” value [11] was “devoid of apparent metabolic value”.
